The results in this text go back to ChEMBL document CHEMBL3714764, “Diaminopyrimidine p2x3 and p2x2/3 receptor modulators for treatment of acute, sub-acute or chronic cough” (2015).

pIC50: −log10 of the molar value. Active and inactive are the calls of the source. The rule behind the calls is not given here.

The species entered for the first test is Homo sapiens. The experiment in a line: Anti-tussive activity in idiopathic/treatment-resistant chronic cough patient assessed as urge to cough analogue scales at 600 mg BID measured after 2 weeks during double-blind randomized placebo-controlled crossover trial. It counts as functional.
Take `COc1cc(C(C)C)c(Oc2cnc(N)nc2N)cc1S(N)(=O)=O` [GEFAPIXANT]: the Activity is reported as -21 mm.

The next test is filed under the species Homo sapiens. Kind of test: Anti-tussive activity in idiopathic/treatment-resistant chronic cough patient assessed as reduction in daytime cough per hour at 600 mg BID measured after 2 weeks during double-blind randomized placebo-controlled crossover trial. It counts as functional.
In the case of `COc1cc(C(C)C)c(Oc2cnc(N)nc2N)cc1S(N)(=O)=O` [GEFAPIXANT], the “inhibition (INH)” value is reported as 75%.

The species entered for the next test is Homo sapiens. The experiment in a line: Anti-tussive activity in idiopathic/treatment-resistant chronic cough patient assessed as global ratings of change and cough quality of life questionnaire at 600 mg BID measured after 2 weeks during double-blind randomized placebo-controlled crossover trial. It counts as functional.
For `COc1cc(C(C)C)c(Oc2cnc(N)nc2N)cc1S(N)(=O)=O` [GEFAPIXANT], the Activity_index is on record as -9.

The next test is filed under the species Homo sapiens. Kind of test: Anti-tussive activity in patient with refractory chronic cough assessed as reduction in objective daytime cough counts at 600 mg BID measured after 2 weeks during double-blind randomized placebo-controlled crossover trial. It counts as functional.
`COc1cc(C(C)C)c(Oc2cnc(N)nc2N)cc1S(N)(=O)=O` [GEFAPIXANT]: the “inhibition (INH)” value amounted to 75%.

A further test has as its target T1, P2X purinoceptor 3 (Rattus norvegicus, UniProt P49654).
T1 sequence (P49654 whole entry): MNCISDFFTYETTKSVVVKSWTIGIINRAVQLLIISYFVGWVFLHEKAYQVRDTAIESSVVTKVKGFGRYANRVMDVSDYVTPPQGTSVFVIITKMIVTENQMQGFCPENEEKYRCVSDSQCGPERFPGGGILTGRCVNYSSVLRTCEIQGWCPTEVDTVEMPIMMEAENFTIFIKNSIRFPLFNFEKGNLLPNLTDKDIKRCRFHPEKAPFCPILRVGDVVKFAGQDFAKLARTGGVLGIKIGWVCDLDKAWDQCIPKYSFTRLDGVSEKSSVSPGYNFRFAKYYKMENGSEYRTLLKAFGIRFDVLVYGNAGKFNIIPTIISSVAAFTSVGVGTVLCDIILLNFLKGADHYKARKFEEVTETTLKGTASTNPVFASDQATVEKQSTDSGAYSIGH
The experiment in a line: (§1) Antagonist activity against rat P2X3 receptor expressed in CHO-K1 cells assessed as effect on calcium level incubated for 20 mins by Fluo-3AM dye based FLIPR assay. It counts as functional, cell-based.
As usually defined, the pIC50 is −log10 of the IC50, conventionally taken in molar units. Regarding `CC(C)c1cc(O)c(I)cc1Oc1cnc(N)nc1N`, the pIC50 was 8.30.

In another test the target is T2, P2X purinoceptor 3 (Rattus norvegicus) (UniProt P49654).
T2 sequence (whole entry): T1 sequence (P49654 whole entry)
Described as §1. It counts as functional, cell-based.
Consider `COc1cc(C(C)C)c(Oc2cnc(N)nc2N)cc1NC(N)=O`, for which the inhibition entry is “Active”. Still for that read-out and setting: then `C=Cc1cc(Oc2cnc(N)nc2N)c(C(C)C)cc1OC`, with “Active”. The same measure, in the same setting: then `CC(C)c1cc(OCC(F)(F)F)c(I)cc1Oc1cnc(N)nc1N`, with “Active”; and `CNC(=O)c1cc(Oc2cnc(N)nc2N)c(C(C)C)cc1OC`, with “Active”; and `COc1cc(C(C)C)c(Oc2cnc(N)nc2N)cc1NC(C)=O`, with “Active”. In the case of `COc1cc(C(C)C)c(Oc2cnc(N)nc2N)cc1[N+](=O)[O-]`, the inhibition result was “Active”. Same read-out and setting: then `COc1cc(C(C)C)c(Oc2cnc(N)nc2N)cc1C(F)(F)F`, with “Active”; and `CNS(=O)(=O)c1cc(Oc2cnc(N)nc2N)c(C(C)C)cc1OC`, with “Active”. The same measure, in the same setting: the value for `CC(C)c1cc(OC(F)F)c(Cl)cc1Oc1cnc(N)nc1N` was “Active”. On the same count and under the same terms, then `CC(=O)c1cc(Oc2cnc(N)nc2N)c(C(C)C)cc1O`, with “Active”. For `COc1cc(C(C)C)c(Oc2cnc(N)nc2N)cc1S(C)(=O)=O`, the inhibition entry was “Active”.

For the molecule `COc1cc(C(C)C)c(Oc2cnc(N)nc2N)cc1C(C)=O`, the inhibition entry was “Active”. On the same count and under the same terms, then `COc1cc(C(C)C)c(Oc2cnc(N)nc2N)cc1NC(=O)Nc1ccccc1`, with “Active”; and `COc1cc(C(C)C)c(Oc2cnc(N)nc2N)cc1C(=O)N(C)C`, with “Active”; and `COc1cc(C(C)C)c(Oc2cnc(N)nc2N)cc1C(C)C`, with “Active”. On to `COc1cc(C(C)C)c(Oc2cnc(N)nc2N)cc1C(C)OC` (configuration not stated), for which the inhibition entry is “Active”. Turning to `COc1cc(C(C)C)c(Oc2cnc(N)nc2N)cc1N`, the inhibition result is “Active”.

Take `COc1cc(C(C)C)c(Oc2cnc(N)nc2N)cc1C(N)=O`: the inhibition result is “Active”. Still for that read-out and setting: the value for `COc1cc(C(C)C)c(Oc2cnc(N)nc2N)cc1Br` was “Active”; that for `COc1cc(Oc2cnc(N)nc2N)c(C(C)C)cc1OC` was “Active”; that for `COc1cc(C(C)C)c(Oc2cnc(N)nc2N)cc1C#N` was “Active”. Same read-out and setting: the value for `CC(C)c1cc(O)c(I)cc1Cc1cnc(N)nc1N` was “Active”; that for `COc1cc(C(C)C)c(Oc2cnc(N)nc2N)cc1C(C)O` (configuration not stated) was “Active”; that for `COc1cc(C(C)C)c(Oc2cnc(N)nc2N)cc1F` was “Active”. On the same count and under the same terms, then `COc1cc(C(C)C)c(Oc2cnc(N)nc2N)cc1OC(F)(F)F`, with “Active”. As to `COc1cc(C(C)C)c(Oc2cnc(N)nc2N)cc1Cl`, the inhibition result was “Active”. For `COc1cc(C(C)C)c(Oc2cnc(N)nc2N)cc1C`, the inhibition entry was “Active”.

On to `CCNC(=O)Nc1cc(Oc2cnc(N)nc2N)c(C(C)C)cc1OC`, for which the inhibition entry is “Active”.

On to `COc1cc(C(C)C)c(Oc2cnc(N)nc2N)cc1C(=O)O`, for which the inhibition result was “Active”. As to `CCNS(=O)(=O)c1cc(Oc2cnc(N)nc2N)c(C(C)C)cc1OC`, the inhibition result is “Active”. On the same count and under the same terms, the value for `C#CCOc1cc(C(C)C)c(Oc2cnc(N)nc2N)cc1I` was “Active”; that for `COc1cc(C(C)C)c(Oc2cnc(N)nc2N)cc1C(C)(C)O` was “Active”.

With `COc1cc(C(C)C)c(Oc2cnc(N)nc2N)cc1S(N)(=O)=O` [GEFAPIXANT], the inhibition result was “Active”. Regarding `CCS(=O)(=O)c1cc(Oc2cnc(N)nc2N)c(C(C)C)cc1OC`, the inhibition entry was “Active”. Still for that read-out and setting: the value for `CCOc1cc(C(C)C)c(Oc2cnc(N)nc2N)cc1I` was “Active”; that for `COc1cc(C(C)C)c(Oc2cnc(N)nc2N)cc1I` was “Active”.

The species entered for a further test is Homo sapiens. Kind of test: Anti-tussive activity in idiopathic/treatment-resistant chronic cough patient assessed as cough severity visual analogue scales at 600 mg BID measured after 2 weeks during double-blind randomized placebo-controlled crossover trial. It counts as functional.
For the molecule `COc1cc(C(C)C)c(Oc2cnc(N)nc2N)cc1S(N)(=O)=O` [GEFAPIXANT], the Activity is recorded as -26 mm.
